Where a name gives a salt, the structure may show the parent alone.
How the values were obtained:
lysozyme = target: T1, lysozyme (Gallus gallus, UniProt P00698); test: Photochemical labeling of lysozyme with pyridinium salts (General Procedure B, LC/MS); type: biochemical, chicken
T1 construct: Lysozyme (from chicken egg white, >40,000 units/mg of protein); purchased Sigma Aldrich; host or cells: chicken egg white
Method: General Procedure B: Photochemical Irradiation of Peptides and Proteins: To a 2 mL Pyrex LC/MS vial (Thermo model #03-391-39) were sequentially added solutions containing the desired biomolecule, glutathione (GSH), pyridinium salt, and ammonium acetate (NH4OAc). The resulting solution was diluted to a final volume of 500 μL and then sparged using nitrogen for a minimum of 30 minutes prior to irradiation. The actively sparging solution was then placed in an EvoluChem™ PhotoRedOx Box photoreactor that was equipped with a Kessil, PR160 427 nm LED Lamp and was then irradiated (100% lamp intensity) for the designated time at room temperature while maintaining active sparging. The resultant reaction mixture was then analyzed directly by LC/MS. Analysis of labeling outcomes using LC/MS was performed either by extracted ion chromatogram intensities (method A) or by integrating the area under the peaks associated with peptide content (method B). These values were totaled, and estimated percentages were assigned according to relative intensities of peaks or ion counts.
Labeling of Lysozyme with Pyridinium Salt 2a (Lysozyme-2a Conjugate). Labeling of lysozyme (14.3 kDa) with the pyridinium salt 2a was performed by following general procedure B using the following solutions: lysozyme (27 μL, 182 μM, 10 μM final concentration), pyridinium salt 2a (200 μL, 500 μM, 200 μM final concentration), NH4OAc (100 μL, 100 mM, pH=6.9, 20 mM final concentration), glutathione (15 μL, 10 mM, 300 μM final concentration), and water (158 μL) with a 100% intensity irradiation time of 60 minutes. The reaction mixture was analyzed directly by LC/MS using method A and was estimated to have proceeded in >95% conversion and a 10.9:1 mono:di labeled ratio and 10% glutathionylation of all unlabeled and labeled protein content was observed.
Labeling of Lysozyme with Pyridinium Salt 2b (Lysozyme-2b Conjugate). Labeling of lysozyme (14.3 kDa) with the pyridinium salt 2b was performed by following general procedure Busing the following solutions: lysozyme (19 μL, 262 μM, […]), 2b (181 μL, 554 μM, 200 μM final concentration), NH4OAc (50 μL, 200 mM, pH=6.9, 20 mM final concentration), glutathione (50 μL, 3 mM, 300 μM final concentration), and water (200 μL) with a 100% intensity irradiation time of 10 minutes. The reaction mixture was analyzed directly by LC/MS using method A and was estimated to have proceeded with 83% conversion. […]
Labeling of Lysozyme with Pyridinium Salt 2c (Lysozyme-2c Conjugate). […] The reaction mixture was analyzed directly by LC/MS using method A and was estimated to have proceeded with 85% conversion and a 3.7:1 mono:di labeled ratio and 10% glutathionylation of all protein content was observed. […]

[1] = target: T2, recombinant NPM1 C-terminal domain (residues 240-294) (Homo sapiens, UniProt P06748); test: In vitro NPM1 C-terminal domain labeling (Western blot); type: biochemical; conditions: 10 μM NPM1, 100 μM probe, 100 μM glutathione, HEPES pH 7.5, about 440 nm, 15 min
T2 construct: 6×His (N, cleaved yes); made in house; host or cells: NiCo21(DE3) E. coli
Method: In vitro NPM1 C-terminal domain labeling and characterization: Labeling of recombinant NPM1 with the pyridinium salt 2b was performed with the following conditions: 10 μM NPM1 was treated with DMSO or 100 μM pyridinium salt 2b (2% DMSO) in 50 mM HEPES pH 7.5, 150 mM NaCl, 1.5 mM MgCl2, and 100 μM glutathione (GSH). Samples were irradiated at 450 nm (Kessil PR160L-440) at 100% intensity for 15 minutes at room temperature or 50° C. The reaction mixture was quenched with the addition of 4X LDS buffer (Invitrogen) containing 10 mM DTT (Pierce) and boiled for 10 minutes before resolving proteins on 4-12% Bis-Tris NuPAGE gels (Invitrogen), transferred onto a Trans-Blot Turbo Mini 0.2 μm nitrocellulose membrane (BioRad), blocked with 5% BSA in tris-buffered saline with Tween-20 (TBST), and incubated with HRP-linked anti-biotin (Cell Signaling Technology, #7075).

T1 sequence (P00698 19-147): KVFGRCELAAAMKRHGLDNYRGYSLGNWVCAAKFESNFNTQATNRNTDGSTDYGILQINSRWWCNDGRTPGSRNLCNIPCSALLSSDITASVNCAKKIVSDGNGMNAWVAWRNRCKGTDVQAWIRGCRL
T2 sequence (P06748 240-294): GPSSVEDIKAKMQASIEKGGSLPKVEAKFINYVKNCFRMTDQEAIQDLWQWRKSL

| SMILES | Modified Trp (lysozyme; trypsin digest, MS-MS) | labeling rate compared to pyridinium salt 2a (lysozyme; lysozyme labeling) | Western analysis of construct labeling [1] |
| --- | --- | --- | --- |
| COC(=O)N(C)[n+]1c(C)cc(-c2ccc3cc(OC)ccc3c2)cc1C [pyridinium salt 2a, 1-((methoxycarbonyl)(methyl)amino)-4-(6-methoxynapthalen-2-yl)-2,6-dimethylpyridin-1-ium tetrafluoroborate] | Trp-62 | – | – |
| COc1ccc2cc(-c3cc(C)[n+](N(C)C(=O)OCCCCC[C@H]4SC[C@H]5NC(=O)N[C@H]54)c(C)c3)ccc2c1 (stereo in doubt) [pyridinium salt 2b, 4-(6-methoxynaphthalen-2-yl)-2,6-dimethyl-1-(methyl(((5-((3aR,4R,6aS)-2-oxohexahydro-1H-thieno[3,4-d]imidazol-4-yl)pentyl)oxy)carbonyl)amino)pyridin-1-ium tetrafluoroborate] | – | much faster rate | photo-dependent labeling |

Reference: patent US20240262845A1, “PYRIDINIUM SALTS, METHODS OF MAKING, AND METHODS OF USE” (UNIVERSITY OF WYOMING, priority 2023, published 2024)
